For test [1], the target named is Tyrosine-protein kinase Fyn (Homo sapiens) (UniProt P06241). The test is described as follows: Inhibition of human FYN at 500 nM by HotSpot assay relative to control.
Test [2] has as its target Ribosomal protein S6 kinase alpha-5 (Homo sapiens) (UniProt O75582). Briefly: Inhibition of human RPS6KA5 at 500 nM by HotSpot assay relative to control.
Test [3] deals with High affinity nerve growth factor receptor (Homo sapiens) (UniProt P04629). Briefly: Inhibition of human TRKA at 500 nM by HotSpot assay relative to control.
Test [4] concerns the target NT-3 growth factor receptor (Homo sapiens) (UniProt Q16288). Briefly: Inhibition of human TRKC at 500 nM by HotSpot assay relative to control.
In test [5] the target is T1, Beta-adrenergic receptor kinase 1 (Homo sapiens) (UniProt P25098).
T1 sequence (whole entry): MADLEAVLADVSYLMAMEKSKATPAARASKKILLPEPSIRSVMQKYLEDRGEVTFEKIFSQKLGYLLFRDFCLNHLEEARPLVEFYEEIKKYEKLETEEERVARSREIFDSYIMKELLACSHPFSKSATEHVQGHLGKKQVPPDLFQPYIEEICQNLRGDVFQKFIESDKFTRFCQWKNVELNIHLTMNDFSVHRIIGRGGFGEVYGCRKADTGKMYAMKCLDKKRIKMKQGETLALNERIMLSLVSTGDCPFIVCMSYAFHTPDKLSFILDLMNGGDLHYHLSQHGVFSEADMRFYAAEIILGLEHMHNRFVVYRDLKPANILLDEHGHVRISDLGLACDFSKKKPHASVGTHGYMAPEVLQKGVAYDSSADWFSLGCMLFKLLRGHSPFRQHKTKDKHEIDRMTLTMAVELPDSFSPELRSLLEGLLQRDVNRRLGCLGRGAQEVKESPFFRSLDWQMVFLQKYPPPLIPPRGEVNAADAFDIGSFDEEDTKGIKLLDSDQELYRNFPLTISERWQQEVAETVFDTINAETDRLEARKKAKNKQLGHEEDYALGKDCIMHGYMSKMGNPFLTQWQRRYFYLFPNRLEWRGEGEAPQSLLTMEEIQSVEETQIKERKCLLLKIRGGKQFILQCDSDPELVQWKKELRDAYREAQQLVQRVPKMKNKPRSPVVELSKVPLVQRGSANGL
The test is described as follows: Inhibition of human GRK2 at 500 nM by HotSpot assay relative to control.

Test [6] has as its target T2, Serine/threonine-protein kinase Sgk1 (Homo sapiens) (UniProt O00141).
T2 sequence (whole entry): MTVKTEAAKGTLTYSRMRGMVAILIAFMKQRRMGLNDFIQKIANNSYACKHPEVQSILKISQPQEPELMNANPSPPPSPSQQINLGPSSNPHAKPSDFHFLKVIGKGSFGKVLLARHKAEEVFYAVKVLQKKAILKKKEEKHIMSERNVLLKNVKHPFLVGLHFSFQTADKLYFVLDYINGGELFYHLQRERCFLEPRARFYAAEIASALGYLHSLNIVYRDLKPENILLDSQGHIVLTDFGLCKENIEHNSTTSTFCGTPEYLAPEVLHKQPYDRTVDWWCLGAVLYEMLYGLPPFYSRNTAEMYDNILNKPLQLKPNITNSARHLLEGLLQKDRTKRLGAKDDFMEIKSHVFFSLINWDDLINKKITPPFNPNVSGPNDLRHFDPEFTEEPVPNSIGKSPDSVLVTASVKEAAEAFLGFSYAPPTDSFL
The test is described as follows: Inhibition of human SGK1 at 500 nM by HotSpot assay relative to control.

The target in test [7] is T3, Inhibitor of nuclear factor kappa-B kinase subunit epsilon (Homo sapiens) (UniProt Q14164).
T3 sequence (whole entry): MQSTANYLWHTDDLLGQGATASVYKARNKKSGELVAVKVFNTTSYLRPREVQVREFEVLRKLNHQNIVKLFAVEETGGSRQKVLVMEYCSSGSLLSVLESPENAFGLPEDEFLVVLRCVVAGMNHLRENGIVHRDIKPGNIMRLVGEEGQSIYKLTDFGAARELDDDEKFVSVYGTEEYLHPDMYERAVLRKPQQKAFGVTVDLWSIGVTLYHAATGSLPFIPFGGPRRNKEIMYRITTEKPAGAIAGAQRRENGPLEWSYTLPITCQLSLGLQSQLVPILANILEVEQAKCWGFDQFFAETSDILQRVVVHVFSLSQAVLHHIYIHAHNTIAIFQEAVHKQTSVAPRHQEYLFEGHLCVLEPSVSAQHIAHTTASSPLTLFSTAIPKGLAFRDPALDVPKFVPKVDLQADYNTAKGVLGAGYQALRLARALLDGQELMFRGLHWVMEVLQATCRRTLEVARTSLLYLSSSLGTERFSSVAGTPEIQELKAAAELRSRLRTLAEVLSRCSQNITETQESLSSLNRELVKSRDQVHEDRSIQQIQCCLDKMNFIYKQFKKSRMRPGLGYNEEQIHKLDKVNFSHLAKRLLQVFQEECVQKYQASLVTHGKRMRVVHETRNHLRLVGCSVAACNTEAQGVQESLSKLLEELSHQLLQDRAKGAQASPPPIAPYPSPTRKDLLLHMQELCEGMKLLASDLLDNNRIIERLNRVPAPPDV
Briefly: Inhibition of human IKKe at 500 nM by HotSpot assay relative to control.

The target in test [8] is Serine/threonine-protein kinase 16 (Homo sapiens) (UniProt O75716). Briefly: Inhibition of human STK16 at 500 nM by HotSpot assay relative to control.
Test [9] addresses Macrophage colony-stimulating factor 1 receptor (Homo sapiens) (UniProt P07333). Briefly: Inhibition of human FMS at 500 nM by HotSpot assay relative to control.
Test [10] is described as follows: Inhibition of mono-phosphorylated human Insulin receptor (978 to 1283 residues) C981S mutant kinase domain expressed in baculovirus infected Sf9 cells incubated for 1 hr by [gamma-33P]ATP assay.
Test [11] has as its target Serine/threonine-protein kinase PAK 6 (Homo sapiens) (UniProt Q9NQU5). The test is described as follows: Inhibition of human PAK6 at 500 nM by HotSpot assay relative to control.
The target in test [12] is Tyrosine-protein kinase JAK2 (Homo sapiens) (UniProt O60674). The test is described as follows: Inhibition of human JAK2 at 500 nM by HotSpot assay relative to control.

We go through two compounds from ChEMBL document CHEMBL5653615 (J Biol Chem, 2013).

The structures appear in SMILES notation. Active and inactive are the calls of the source. The calls are words filed in the database; no cut-off is given here.

Chain of Serine/threonine-protein kinase 16 (Homo sapiens) (O75716 whole entry): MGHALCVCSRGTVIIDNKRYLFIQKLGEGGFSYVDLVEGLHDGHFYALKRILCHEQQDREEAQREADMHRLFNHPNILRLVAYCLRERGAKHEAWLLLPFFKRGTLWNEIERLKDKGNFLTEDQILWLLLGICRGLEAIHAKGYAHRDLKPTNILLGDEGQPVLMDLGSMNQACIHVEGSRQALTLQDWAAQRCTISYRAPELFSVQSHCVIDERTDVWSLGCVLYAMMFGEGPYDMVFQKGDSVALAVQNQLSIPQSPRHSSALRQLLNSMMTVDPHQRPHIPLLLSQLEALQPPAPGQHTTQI
Chain of Serine/threonine-protein kinase PAK 6 (Homo sapiens) (Q9NQU5 whole entry, looked up): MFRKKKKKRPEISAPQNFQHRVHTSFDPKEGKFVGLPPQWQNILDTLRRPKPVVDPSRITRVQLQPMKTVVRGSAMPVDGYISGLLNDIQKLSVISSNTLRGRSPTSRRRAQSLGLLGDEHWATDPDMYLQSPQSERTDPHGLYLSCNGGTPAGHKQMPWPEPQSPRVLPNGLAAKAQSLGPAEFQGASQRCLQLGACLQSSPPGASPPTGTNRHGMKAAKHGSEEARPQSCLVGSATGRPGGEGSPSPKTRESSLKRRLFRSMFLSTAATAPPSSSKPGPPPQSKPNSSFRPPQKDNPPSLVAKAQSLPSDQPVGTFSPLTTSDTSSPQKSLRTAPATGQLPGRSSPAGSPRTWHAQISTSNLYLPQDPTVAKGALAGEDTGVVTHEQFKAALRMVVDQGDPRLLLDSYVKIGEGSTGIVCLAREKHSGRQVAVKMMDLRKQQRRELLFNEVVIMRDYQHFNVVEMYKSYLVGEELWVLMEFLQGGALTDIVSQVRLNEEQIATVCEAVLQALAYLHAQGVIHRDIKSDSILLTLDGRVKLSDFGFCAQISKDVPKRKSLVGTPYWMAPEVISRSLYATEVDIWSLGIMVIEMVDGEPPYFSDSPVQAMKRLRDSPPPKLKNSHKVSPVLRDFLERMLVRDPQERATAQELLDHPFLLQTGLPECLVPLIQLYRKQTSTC
Chain of Ribosomal protein S6 kinase alpha-5 (Homo sapiens) (O75582 whole entry, looked up): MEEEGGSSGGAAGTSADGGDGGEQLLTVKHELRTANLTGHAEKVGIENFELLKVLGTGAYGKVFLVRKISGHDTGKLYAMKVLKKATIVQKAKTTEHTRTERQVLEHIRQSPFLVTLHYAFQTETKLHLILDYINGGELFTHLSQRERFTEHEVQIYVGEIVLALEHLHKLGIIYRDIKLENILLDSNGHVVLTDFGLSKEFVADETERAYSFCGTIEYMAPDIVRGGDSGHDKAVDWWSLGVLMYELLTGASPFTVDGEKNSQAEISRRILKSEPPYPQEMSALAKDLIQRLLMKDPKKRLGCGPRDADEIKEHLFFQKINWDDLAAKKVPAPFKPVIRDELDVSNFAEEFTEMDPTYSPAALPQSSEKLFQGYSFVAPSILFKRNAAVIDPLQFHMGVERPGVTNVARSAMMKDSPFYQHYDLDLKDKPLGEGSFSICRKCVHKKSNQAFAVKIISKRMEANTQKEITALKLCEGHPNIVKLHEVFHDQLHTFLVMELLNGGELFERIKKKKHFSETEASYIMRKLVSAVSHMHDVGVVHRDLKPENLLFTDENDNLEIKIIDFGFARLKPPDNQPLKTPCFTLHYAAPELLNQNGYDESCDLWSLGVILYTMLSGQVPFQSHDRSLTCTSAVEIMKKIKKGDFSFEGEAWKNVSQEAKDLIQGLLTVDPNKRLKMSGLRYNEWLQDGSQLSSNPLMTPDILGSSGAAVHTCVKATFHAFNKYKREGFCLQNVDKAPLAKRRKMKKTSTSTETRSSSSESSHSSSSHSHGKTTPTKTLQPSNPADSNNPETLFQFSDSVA
Chain of Macrophage colony-stimulating factor 1 receptor (Homo sapiens) (P07333 whole entry, the tested form may be a part): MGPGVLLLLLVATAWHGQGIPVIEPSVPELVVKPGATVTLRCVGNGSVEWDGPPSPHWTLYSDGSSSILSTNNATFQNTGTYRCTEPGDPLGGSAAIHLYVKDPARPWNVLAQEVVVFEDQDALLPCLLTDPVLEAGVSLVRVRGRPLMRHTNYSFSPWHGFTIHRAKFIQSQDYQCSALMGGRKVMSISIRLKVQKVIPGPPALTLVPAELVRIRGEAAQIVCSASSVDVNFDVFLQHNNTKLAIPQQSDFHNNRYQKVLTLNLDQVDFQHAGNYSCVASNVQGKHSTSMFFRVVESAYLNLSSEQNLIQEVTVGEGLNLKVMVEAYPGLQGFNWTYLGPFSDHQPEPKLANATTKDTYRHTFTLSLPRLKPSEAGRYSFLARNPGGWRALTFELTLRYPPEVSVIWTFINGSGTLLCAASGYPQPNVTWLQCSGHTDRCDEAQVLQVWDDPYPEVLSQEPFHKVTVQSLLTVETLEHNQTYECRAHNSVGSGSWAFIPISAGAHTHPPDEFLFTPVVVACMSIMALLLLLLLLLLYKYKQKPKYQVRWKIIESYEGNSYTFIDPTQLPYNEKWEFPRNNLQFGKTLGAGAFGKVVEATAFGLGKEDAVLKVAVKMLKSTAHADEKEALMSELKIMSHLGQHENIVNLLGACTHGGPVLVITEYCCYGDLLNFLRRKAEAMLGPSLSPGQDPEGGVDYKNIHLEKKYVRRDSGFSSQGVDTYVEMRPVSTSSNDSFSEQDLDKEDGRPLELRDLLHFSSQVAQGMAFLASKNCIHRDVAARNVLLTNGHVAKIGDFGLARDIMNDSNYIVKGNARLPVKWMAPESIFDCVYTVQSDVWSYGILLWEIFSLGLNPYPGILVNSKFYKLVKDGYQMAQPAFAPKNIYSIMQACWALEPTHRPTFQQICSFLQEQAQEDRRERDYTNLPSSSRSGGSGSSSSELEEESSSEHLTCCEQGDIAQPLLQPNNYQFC
Chain of Tyrosine-protein kinase JAK2 (Homo sapiens) (O60674 whole entry): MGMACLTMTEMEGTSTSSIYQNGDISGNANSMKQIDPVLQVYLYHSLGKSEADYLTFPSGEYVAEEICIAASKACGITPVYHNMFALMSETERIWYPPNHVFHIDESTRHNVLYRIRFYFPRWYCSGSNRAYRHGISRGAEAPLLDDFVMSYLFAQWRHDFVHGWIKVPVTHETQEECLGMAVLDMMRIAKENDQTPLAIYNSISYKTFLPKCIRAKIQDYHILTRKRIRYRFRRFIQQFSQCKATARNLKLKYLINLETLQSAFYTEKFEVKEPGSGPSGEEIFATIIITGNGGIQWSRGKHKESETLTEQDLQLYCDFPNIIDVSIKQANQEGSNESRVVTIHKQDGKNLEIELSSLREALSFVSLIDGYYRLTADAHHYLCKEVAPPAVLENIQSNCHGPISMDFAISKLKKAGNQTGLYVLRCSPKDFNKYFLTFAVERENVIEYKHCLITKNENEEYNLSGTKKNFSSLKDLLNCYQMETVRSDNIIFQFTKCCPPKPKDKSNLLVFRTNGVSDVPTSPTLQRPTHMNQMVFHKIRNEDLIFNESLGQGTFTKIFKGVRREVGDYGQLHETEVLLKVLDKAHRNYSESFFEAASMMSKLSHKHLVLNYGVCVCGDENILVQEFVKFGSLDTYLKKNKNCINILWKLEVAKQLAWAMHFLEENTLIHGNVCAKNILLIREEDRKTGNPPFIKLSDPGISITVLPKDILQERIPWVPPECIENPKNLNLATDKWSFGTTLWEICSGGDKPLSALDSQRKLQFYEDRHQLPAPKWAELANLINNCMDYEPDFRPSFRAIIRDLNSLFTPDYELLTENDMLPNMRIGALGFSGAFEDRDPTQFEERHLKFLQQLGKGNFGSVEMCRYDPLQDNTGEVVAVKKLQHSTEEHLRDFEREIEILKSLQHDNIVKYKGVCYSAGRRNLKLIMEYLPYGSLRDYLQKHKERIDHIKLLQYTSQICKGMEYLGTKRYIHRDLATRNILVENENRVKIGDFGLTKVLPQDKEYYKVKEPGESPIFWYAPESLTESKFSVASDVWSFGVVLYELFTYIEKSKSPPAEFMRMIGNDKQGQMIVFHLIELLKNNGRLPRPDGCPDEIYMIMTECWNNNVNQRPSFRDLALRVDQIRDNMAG
Chain of NT-3 growth factor receptor (Homo sapiens) (Q16288 32-839 limits assumed): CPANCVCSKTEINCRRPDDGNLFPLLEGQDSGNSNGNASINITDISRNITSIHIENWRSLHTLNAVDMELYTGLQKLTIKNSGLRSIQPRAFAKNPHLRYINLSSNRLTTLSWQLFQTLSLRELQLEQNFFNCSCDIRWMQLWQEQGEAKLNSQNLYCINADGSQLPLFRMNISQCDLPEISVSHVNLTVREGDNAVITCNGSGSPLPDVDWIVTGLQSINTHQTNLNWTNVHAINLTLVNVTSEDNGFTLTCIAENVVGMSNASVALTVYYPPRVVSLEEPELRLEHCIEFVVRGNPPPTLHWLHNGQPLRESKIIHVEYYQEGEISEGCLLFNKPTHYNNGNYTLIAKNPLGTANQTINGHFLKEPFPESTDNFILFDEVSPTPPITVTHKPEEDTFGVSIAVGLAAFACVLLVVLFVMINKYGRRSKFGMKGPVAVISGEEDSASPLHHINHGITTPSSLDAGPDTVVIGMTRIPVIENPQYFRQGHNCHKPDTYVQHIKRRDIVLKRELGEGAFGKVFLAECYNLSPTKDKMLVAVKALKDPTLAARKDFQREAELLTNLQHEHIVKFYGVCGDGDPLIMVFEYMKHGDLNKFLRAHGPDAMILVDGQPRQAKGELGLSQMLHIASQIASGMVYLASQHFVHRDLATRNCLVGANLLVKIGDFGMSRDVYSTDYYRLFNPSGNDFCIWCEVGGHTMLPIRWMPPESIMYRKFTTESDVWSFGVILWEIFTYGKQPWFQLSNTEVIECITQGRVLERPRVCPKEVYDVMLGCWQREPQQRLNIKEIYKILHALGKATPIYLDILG

In the case of `Nc1n[nH]c2nnc(-c3c(-c4ccccc4)nn4ccccc34)cc12`, the inhibition (as a rule, the relative decrease from the control value, in per cent) in test [1] was 4.98%; in test [2], -1.32%; in test [3], -1.03%; in test [4] it was 23.4%; in test [5] it was 4.99%; in [6], 0.11%. The inhibition in test [7] is 4.54%; in test [8], -7.84%; in [9] it was 3.19%; in test [11], 3.58%; in test [12], 2.93%. The inhibition result in test [10] is “Active”.
Take `Oc1n[nH]c2nnc(-c3c(-c4ccccc4)nn4ccccc34)cc12`: the inhibition is -0.67% in test [1]; -5.1% in test [2]; 4.28% in test [3]; 2.25% in test [4]; 5.01% in test [5]; -4.65% in [6]. Besides, the inhibition in test [7] worked out at 0.81%; in test [8], 1.39%; in test [9], 5%; in test [11], 1.63%; in test [12] it was 2.36%. Also, the inhibition result in test [10] is “Active”.
